One block for each compound: values may come before it.
Experiments:
Human AhR = molecular target: T1, Human AhR (Homo sapiens, UniProt P35869); test: Transactivation assay in human cell line (in vitro assay 1: antagonism); type: cell-based; conditions: U87 glioblastoma cells, AHR inducible (DRE) firefly luciferase reporter, 150 μM kynurenic acid, 20 hours
T1 construct: host or cells: U87 glioblastoma cells, stably transfected with DRE-driven firefly luciferase and constitutive renilla reporter constructs
T1 sequence (P35869 11-848): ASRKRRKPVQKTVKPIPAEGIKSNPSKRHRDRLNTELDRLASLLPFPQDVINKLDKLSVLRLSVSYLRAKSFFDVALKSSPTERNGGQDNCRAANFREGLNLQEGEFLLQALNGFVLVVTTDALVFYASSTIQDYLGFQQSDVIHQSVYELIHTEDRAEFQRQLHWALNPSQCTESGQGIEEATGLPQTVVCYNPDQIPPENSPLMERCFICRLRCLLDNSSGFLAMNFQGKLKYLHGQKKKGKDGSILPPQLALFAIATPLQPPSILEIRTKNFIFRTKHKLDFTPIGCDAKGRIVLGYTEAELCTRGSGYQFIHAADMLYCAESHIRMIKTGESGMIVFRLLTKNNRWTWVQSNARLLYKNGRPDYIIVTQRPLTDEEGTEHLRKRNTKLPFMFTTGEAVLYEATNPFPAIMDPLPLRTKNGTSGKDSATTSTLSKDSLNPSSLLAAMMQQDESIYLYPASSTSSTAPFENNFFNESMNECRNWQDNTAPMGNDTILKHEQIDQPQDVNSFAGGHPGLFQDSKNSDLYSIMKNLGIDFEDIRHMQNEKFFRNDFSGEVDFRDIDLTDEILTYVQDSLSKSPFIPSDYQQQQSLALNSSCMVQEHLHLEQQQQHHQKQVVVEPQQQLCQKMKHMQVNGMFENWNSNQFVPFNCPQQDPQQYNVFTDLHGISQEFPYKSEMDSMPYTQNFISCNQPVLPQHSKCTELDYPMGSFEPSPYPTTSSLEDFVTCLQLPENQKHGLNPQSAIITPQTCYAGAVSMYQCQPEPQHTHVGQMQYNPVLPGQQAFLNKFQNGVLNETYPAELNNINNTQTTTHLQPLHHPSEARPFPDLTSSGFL
Experimental: Transactivation Assay in Human Cell Line (In Vitro Assay 1)
(§1) Transactivation assay was carried out in U87 glioblastoma cells (ATCC) endogenously expressing AHR. In addition the cells were stably transfected with an AHR inducible firefly luciferase reporter gene construct that carried AHR-binding sites (DRE) in its promoter and a renilla reporter gene construct with constitutively active promoter. Kynurenic acid is an endogenous AHR activating ligand and was used to prestimulate test cells prior to testing the antagonistic properties of compounds.
In Vitro Assay 1: Antagonism in Human Cell Line
Firefly luciferase and Renilla activity was determined by the DualGlo Luciferase Assay System (Promega, #2920). Renilla activity was used to assess toxic effects of compounds.

Mouse AhR = molecular target: T2, Mouse AhR (Mus musculus, UniProt P30561); test: Transactivation assay in mouse cell line (in vitro assay 2: antagonism); type: cell-based; conditions: Hepa 1c1c7 cells, AHR inducible (DRE) firefly luciferase reporter, 200 μM kynurenic acid, 20 hours
T2 sequence (P30561 1-848): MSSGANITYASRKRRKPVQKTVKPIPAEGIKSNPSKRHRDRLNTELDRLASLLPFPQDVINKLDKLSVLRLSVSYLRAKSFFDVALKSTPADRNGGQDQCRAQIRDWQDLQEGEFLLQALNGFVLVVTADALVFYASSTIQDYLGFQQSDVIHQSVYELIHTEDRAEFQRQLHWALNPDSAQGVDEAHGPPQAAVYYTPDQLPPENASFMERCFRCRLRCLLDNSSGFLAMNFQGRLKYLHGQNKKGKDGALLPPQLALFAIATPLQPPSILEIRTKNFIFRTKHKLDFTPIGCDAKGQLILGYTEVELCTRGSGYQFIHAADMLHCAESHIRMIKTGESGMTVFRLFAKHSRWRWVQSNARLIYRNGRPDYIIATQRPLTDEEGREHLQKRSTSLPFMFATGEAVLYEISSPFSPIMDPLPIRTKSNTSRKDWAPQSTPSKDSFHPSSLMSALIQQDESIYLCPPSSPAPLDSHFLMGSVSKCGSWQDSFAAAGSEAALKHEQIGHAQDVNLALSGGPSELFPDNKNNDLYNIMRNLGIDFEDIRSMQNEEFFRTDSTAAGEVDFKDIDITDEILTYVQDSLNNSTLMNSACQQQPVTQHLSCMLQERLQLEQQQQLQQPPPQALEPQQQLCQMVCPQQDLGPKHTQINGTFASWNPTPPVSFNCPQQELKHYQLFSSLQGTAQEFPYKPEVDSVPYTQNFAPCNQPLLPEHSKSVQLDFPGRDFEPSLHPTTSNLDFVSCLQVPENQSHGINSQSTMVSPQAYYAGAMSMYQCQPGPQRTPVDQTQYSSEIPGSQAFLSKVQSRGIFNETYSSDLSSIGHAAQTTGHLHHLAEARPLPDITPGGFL
Experimental: Transactivation Assay in Mouse Cell Line (In Vitro Assay 2)
as §1, with “Hepa 1c1c7” for “U87 glioblastoma”, “(ATCC #CRL-2026)” for “(ATCC)”, “its” for “its promoter and a renilla reporter gene construct with constitutively active”
In Vitro Assay 2: Antagonism in Mouse Cell Line
Firefly luciferase activity was determined by the SteadyGlo Luciferase Assay System (Promega, #E2550).

SMILES: Cn1cc(-c2nc(C(=O)N[C@H]3CCCC[C@@H]3O)cc(-c3ccc(OC(F)(F)F)cc3)n2)cn1 (relative stereo) [Example 92, N-[(trans)-2-hydroxycyclohexyl]-2-(1-methyl-1H-pyrazol-4-yl)-6-[4-(trifluoromethoxy)phenyl]pyrimidine-4-carboxamide]
IC50 (Human AhR): 4.27 nM | IC50 (Mouse AhR): 5.79 nM

SMILES: Cn1cc(-c2nc(C(=O)N[C@@H]3CS(=O)(=O)C[C@H]3O)cc(-c3ccc(OC(F)(F)F)cc3)n2)cn1 (relative stereo) [Example 100, N-[(trans)-4-hydroxy-1,1-dioxo-1lambda^6-thiolan-3-yl]-2-(1-methyl-1H-pyrazol-4-yl)-6-[4-(trifluoromethoxy)phenyl]pyrimidine-4-carboxamide]
IC50 (Human AhR): 10.1 nM | IC50 (Mouse AhR): 8.18 nM

SMILES: Cn1cc(-c2nc(C(=O)N[C@@H]3COC[C@@H]3O)cc(-c3ccc(OC(F)(F)F)cc3)n2)cn1 (relative stereo) [Example 105, N-[(cis)-4-hydroxyoxolan-3-yl]-2-(1-methyl-1H-pyrazol-4-yl)-6-[4-(trifluoromethoxy)phenyl]pyrimidine-4-carboxamide]
IC50 (Human AhR): 8.48 nM | IC50 (Mouse AhR): 6.01 nM

SMILES: CC(C)(O)CNC(=O)c1cc(-c2ccc(OC(F)(F)F)cc2)nc(-c2cccnc2)n1 [Example 3, N-(2-hydroxy-2-methylpropyl)-2-(pyridin-3-yl)-6-[4-(trifluoromethoxy)phenyl]pyrimidine-4-carboxamide]
IC50 (Human AhR): 3.86 nM | IC50 (Mouse AhR): 7.81 nM

SMILES: CC(C)(O)CNC(=O)c1cc(-c2ccc(C(F)(F)F)cc2)nc(-c2cccnc2)n1 [Example 7, N-(2-hydroxy-2-methylpropyl)-2-(pyridin-3-yl)-6-[4-(trifluoromethyl)phenyl]pyrimidine-4-carboxamide]
IC50 (Mouse AhR): 12.7 nM

SMILES: Cn1cc(-c2nc(C(=O)NCC(C)(C)O)cc(-c3ccc(C(F)(F)F)cc3)n2)cn1 [Example 8, N-(2-hydroxy-2-methylpropyl)-2-(1-methyl-1H-pyrazol-4-yl)-6-[4-(trifluoromethyl)phenyl]pyrimidine-4-carboxamide]
IC50 (Human AhR): 2.57 nM | IC50 (Mouse AhR): 7.19 nM

SMILES: C[C@@H](CO)NC(=O)c1cc(-c2ccc(Cl)cc2)nc(-c2cccnc2)n1 [Example 9, 6-(4-chlorophenyl)-N-[(2S)-1-hydroxypropan-2-yl]-2-(pyridin-3-yl)pyrimidine-4-carboxamide]
IC50 (Human AhR): 1.1 nM | IC50 (Mouse AhR): 2.84 nM

SMILES: CC(C)(O)CNC(=O)c1cc(-c2ccc(Cl)cc2)nc(-c2cccnc2)n1 [Example 10, 6-(4-chlorophenyl)-N-(2-hydroxy-2-methylpropyl)-2-(pyridin-3-yl)pyrimidine-4-carboxamide]
IC50 (Human AhR): 1.38 nM | IC50 (Mouse AhR): 8.42 nM

SMILES: COc1ccncc1-c1nc(C(=O)NCC(C)(C)O)cc(-c2ccc(Cl)cc2)n1 [Example 61, 6-(4-chlorophenyl)-N-(2-hydroxy-2-methylpropyl)-2-(4-methoxypyridin-3-yl)pyrimidine-4-carboxamide]
IC50 (Mouse AhR): 4.8 nM

SMILES: C[C@@H](CO)NC(=O)c1cc(-c2ccc(Cl)cc2)nc(-c2cnc(Cl)nc2)n1 [Example 84, 2′-chloro-6-(4-chlorophenyl)-N-[(2S)-1-hydroxypropan-2-yl][2,5′-bipyrimidine]-4-carboxamide]
IC50 (Human AhR): 17600 nM

SMILES: CC(C)(O)CNC(=O)c1cc(-c2ccc(C(F)F)cc2)nc(-c2cccnc2)n1 [Example 120, 6-[4-(difluoromethyl)phenyl]-N-(2-hydroxy-2-methylpropyl)-2-(pyridin-3-yl)pyrimidine-4-carboxamide]
IC50 (Mouse AhR): 10.2 nM

Other lines, results leading:

IC50 (Human AhR): 5.74 nM | IC50 (Mouse AhR): 7.07 nM
SMILES: Cn1cc(-c2nc(C(=O)N[C@@H]3CC[C@H]3O)cc(-c3ccc(OC(F)(F)F)cc3)n2)cn1 (relative stereo) [Example 86, N-[(trans)-2-hydroxycyclobutyl]-2-(1-methyl-1H-pyrazol-4-yl)-6-[4-(trifluoromethoxy)phenyl]pyrimidine-4-carboxamide]

IC50 (Human AhR): 5.33 nM | IC50 (Mouse AhR): 3.93 nM
SMILES: Cn1cc(-c2nc(C(=O)N[C@H]3CCC[C@@H]3O)cc(-c3ccc(OC(F)(F)F)cc3)n2)cn1 (stereo in doubt) [Example 87, N-[(trans)-2-hydroxycyclopentyl]-2-(1-methyl-1H-pyrazol-4-yl)-6-[4-(trifluoromethoxy)phenyl]pyrimidine-4-carboxamide]

IC50 (Human AhR): 53.2 nM | IC50 (Mouse AhR): 56.1 nM
SMILES: Cn1cc(-c2nc(C(=O)N[C@@H]3CCC[C@H]3O)cc(-c3ccc(OC(F)(F)F)cc3)n2)cn1 (stereo in doubt) [Example 96, N-[(trans)-2-hydroxycyclopentyl]-2-(1-methyl-1H-pyrazol-4-yl)-6-[4-(trifluoromethoxy)phenyl]pyrimidine-4-carboxamide]

IC50 (Human AhR): 0.885 nM | IC50 (Mouse AhR): 2.03 nM
SMILES: C[C@@H](CO)NC(=O)c1cc(-c2ccc(OC(F)(F)F)cc2)nc(-c2cccnc2)n1 [Example 1, N-[(2S)-1-hydroxypropan-2-yl]-2-(pyridin-3-yl)-6-[4-(trifluoromethoxy)phenyl]pyrimidine-4-carboxamide]

IC50 (Human AhR): 2.88 nM | IC50 (Mouse AhR): 20.3 nM
SMILES: C[C@H](CO)NC(=O)c1cc(-c2ccc(OC(F)(F)F)cc2)nc(-c2cccnc2)n1 [Example 2, N-[(2R)-1-hydroxypropan-2-yl]-2-(pyridin-3-yl)-6-[4-(trifluoromethoxy)phenyl]pyrimidine-4-carboxamide]

IC50 (Human AhR): 3.68 nM | IC50 (Mouse AhR): 2.92 nM
SMILES: C[C@@H](CO)NC(=O)c1cc(-c2ccc(OC(F)(F)F)cc2)nc(-c2cnn(C)c2)n1 [Example 5, N-[(2S)-1-hydroxypropan-2-yl]-2-(1-methyl-1H-pyrazol-4-yl)-6-[4-(trifluoromethoxy)phenyl]pyrimidine-4-carboxamide]

IC50 (Human AhR): 7.53 nM | IC50 (Mouse AhR): 15 nM
SMILES: Cn1cc(-c2nc(C(=O)NCC(C)(C)O)cc(-c3ccc(OC(F)(F)F)cc3)n2)cn1 [Example 6, N-(2-hydroxy-2-methylpropyl)-2-(1-methyl-1H-pyrazol-4-yl)-6-[4-(trifluoromethoxy)phenyl]pyrimidine-4-carboxamide]

IC50 (Human AhR): 4.99 nM
SMILES: Cn1cc(-c2nc(C(=O)NCC3(O)CCC3)cc(-c3ccc(OC(F)(F)F)cc3)n2)cn1 [Example 97, N-[(1-hydroxycyclobutyl)methyl]-2-(1-methyl-1H-pyrazol-4-yl)-6-[4-(trifluoromethoxy)phenyl]pyrimidine-4-carboxamide]

IC50 (Mouse AhR): 1.97 nM
SMILES: CC(C)[C@@H](CO)NC(=O)c1cc(-c2ccc(OC(F)(F)F)cc2)nc(-c2cnn(C)c2)n1 [Example 116, N-[(2S)-1-hydroxy-3-methylbutan-2-yl]-2-(1-methyl-1H-pyrazol-4-yl)-6-[4-(trifluoromethoxy)phenyl]pyrimidine-4-carboxamide]
